Reference: patent US20050008640A1, “Method of treating transplant rejection” (priority 2003, published 2005)

How the values were obtained:
anti-CD3 induced IL-2 = assay: Anti-CD3 induced IL-2 production; type: in vivo, BALB/c mice; conditions: 12.5 mg/kg p.o.
Procedure: Six to 8 week old BALB/c mice were dosed p.o. with EXAMPLE 3 30 minutes prior to i.v. injection of 75 ng hamster anti-mouse CD3 antibody, 145-2C11 (PharMingen, San Diego, Calif.). Two hours after anti-CD3 injection mice were bled via cardiac puncture, serum was collected and assayed for IL-2 by ELISA (Endogen, Woburn, Mass.).

C57BL/6 mice = assay: Delayed type hypersensitivity (DTH), mBSA footpad challenge; type: in vivo
Procedure: A modification of a method described by Magram, J., Turek, C. W., Killeen, N; Immunity, 4: 471, 1996 and Magram, J., Sfarra, J., Connaughton, S., et al; Ann. NY Acad. Sci., 795: 60-70, 1996 was used. On day 0 C57BL/6 mice were immunized intradermal (i.d.) with 400 μg methylated bovine serum albumin (mBSA) (Sigma Chemical Co., St. Louis, Mo.) in a 1:1 emulsion with complete Freund's adjuvant (Difco Labs, Detroit, Mich.). […] On day 7 post immunization mice were challenged in one hind footpad with 100 μg of mBSA in 20 μl of PBS and in the opposite footpad with PBS alone. Footpad swelling was measured 24 hours after challenge using a vernier caliper.

[1] = test system: BALB/c cardiac allograft in C57BL/6 recipients; assay: Neonatal cardiac transplantation; type: in vivo, C57BL/6 mice; conditions: for cardiac allograft survival on day 13 post transplantation: q.d. from day -1, visual observation and electrocardiogram
Source text: Neonatal cardiac transplantation was done using a modification of methods described by Judd, K. P. & Trentin, J. J; Transplantation, 11(3): 298-302, 1971 and Fey, T. A., Krause, R. A., Hsieh, G. C., et al; J. Pharmacol. Tox. Methods, 39: 9-17, 1998 which are incorporated herein in their entirety.
Hearts from one to two day old C57BL/6 (isograft) and BALB/c (allograft) pups were removed aseptically and stored in cold PBS until transplant. Adult C57BL/6 mice were used as transplant recipients. Each recipient mouse was transplanted with an isograft heart in the left ear and an allograft heart in the right ear. Mice were anesthetized with avertin (0.25 cc/mouse, i.p.) (2.0 G 2,2,2-Tribromoethanol) (Aldrich, Milwaukee, Wis.) plus 2.0 ml 2-methyl-2-butanol (tert-amyl alcohol) (Aldrich, Milwaukee, Wis.) and protective ointment was applied to eyes after anesthesia. An incision was made in each ear pinnae using a scalpel blade and straight fine forceps were used to create a subcutaneous pocket in the ear. The donor heart was placed into the pocket using a second pair of forceps. On days 5-16, mice were anesthetized with isofluorane (Henry Schein, Melville, N.Y.) /oxygen and the heartbeats were visually assessed using a dissecting microscope. On the final day electrical activity of the cardiac tissue was monitored by electrocardiogram. The ears were then removed and the transplanted tissue were evaluated histologically for evidence of inflammation and necrosis (rejection).

[2] = test system: BALB/c skin allograft in C57BL/6 recipient mice; assay: Skin transplantation; type: in vivo, C57BL/6 mice; conditions: q.d. day -1 to day 9
Source text: Skin transplantation was done using a modification of a previously described method Chang, A. E. & Sugarbaker, P. H; Transplantation, 29: 381, 1980 and Sugarbaker, P. H. & Chang, A; J. Immunol. Methods, 31: 167, 1979. Tail skin was collected from BALB/c donors, scraped free of fat and fascia and maintained in PBS on ice until transplanted. Partial thickness wounds were created on the backs of C57BL/6 recipient mice and the graft was cut to exactly fit the wound bed. Grafts were adhered to the wound bed with a small amount of wound glue (Henry Schein, Melville, N.Y.), covered with petroleum jelly embedded gauze (Sherwood Medical, St. Louis, Mo.) and bandaged for 5 days. On day 6, bandages were removed and grafts were scored visually for necrosis from day 6 to day 10.

[3] = test system: BALB/c islet grafts in diabetic C57BL/6 recipients; assay: Islet transplantation; type: in vivo, C57BL/6 mice; conditions: 12 mg/kg oral daily
Procedure: Chemical diabetes was induced in C57BL/6 mice using a single intraperitoneal dose of streptozocin (150 mg/kg) as previously described in Markees, T. G., Serreze, D. V., Phillips, N. E., et al; Diabetes, 48(5): 967-974, 1999. Mice with persistent hyperglycemia of >300 mg/dl were selected for experimentation as allograft recipients. Blood for plasma glucose was monitored thrice weekly (Glucose Analyzer2; Beckman Instruments, Fullerton, Calif.). Islets of Langerhans from BALB/c donors were isolated by collagenase digestion followed by density-gradient separation, as described previously Markees, T. G., Serreze, D. V., Phillips, N. E., et al; Diabetes, 48(5): 967-974, 1999. Approximately 20 islets/g body weight were transplanted into the renal subcapsular space C57BL/6 recipients. Oral treatments were provided daily beginning one day prior to islet transplant through day 28. Rejection was defined as the first of two consecutive days on which the plasma glucose was greater than or equal to 250 mg/dl. To verify the functionality of islet grafts, the graft bearing kidney was removed and placed in 10% formalin for histological analysis. Recurrence of hyperglycemia after graft removal was interpreted as evidence that the graft was the source of insulin in treated mice.

IgG1 alloantibody = assay: Alloantibody measurement, IgG1; type: in vivo, C57BL/6 mice; conditions: serum 21 days after cardiac allograft; dose not stated
Procedure: (§1) All sera were heat inactivated at 56° C. for 30 minutes and stored at −20° C. prior to analysis. BALB/c T cells were purified from spleen using MACS CD90 (Thy1.2) beads (Miltenyi Biotech, Auburn, Calif.). Briefly, 10^7 cells were resuspended in buffer containing 10 mg/ml of human IgG (Sigma, St. Louis, Mo.). […] The bead/cell mixture was then incubated for 15 minutes at 6-12° C., washed, and resuspended in 500 μl PharMingenStain Buffer (PharMingen , San Diego, Calif.) per 10^8 cells and run through an LS+ selection column. The isolated T cell suspension was adjusted to a concentration of 1×10^6 cells/ml. For flow cytometric analysis BALB/c T cells were incubated with recipient sera (1:50 for IgG2a analysis, 1:40 for IgG1 analysis). Following a 30 minute incubation at 4° C., the cells were washed and resuspended in either goat anti-mouse IgG1-phycoerythrin (PE) or anti-mouse IgG2a-PE antibody (Caltag, Burlingame, Calif.). Cells were analyzed using a Becton Dickinson FACScan (Mountain View, Calif.). Data are presented as mean and SEM of fluorescence intensity corrected for control (naive serum) fluorescence. Statistical analysis was performed using a two-tailed Student's t-test.

IgG2a alloantibody = assay: Alloantibody measurement, IgG2a; type: in vivo, C57BL/6 mice; conditions: serum 21 days after cardiac allograft; dose not stated
Procedure: as §1

For `COc1cc(-c2nn(C3CCC(N4CCN(C)CC4)CC3)c3ncnc(N)c23)ccc1NC(=O)c1cc2ccccc2n1C` (centres unmarked) [Example 3], the “inhibition of anti-CD3 induced IL-2” value (anti-CD3 induced IL-2) was “complete inhibition”, the “inhibition of DTH” value (C57BL/6 mice; treatment given only on days 7 and 8 (around the antigen challenge)) was 65% and the “inhibition of footpad swelling 24 hours post challenge” value (C57BL/6 mice; treatment p.o., q.d. from day -1 to day 8) was 77%. For the same molecule, the “cardiac allograft survival on day 13 post transplantation” value ([1]; 6 mg/kg p.o.) was 60%, the “cardiac allograft survival on day 13 post transplantation” value ([1]; 12 mg/kg p.o.) was 100% and the “Percent Survival Day 16 Post Transplant (cardiac allograft, electrocardiogram)” value ([1]; Example 3 3 mg/kg p.o., q.d.) was 10%. For the same molecule, the “histological evaluation of transplanted allograft hearts” value ([1]; compared to vehicle treated hearts) was “decrease in peri- and intra-graft inflammation and necrosis”, the “survival of skin allografts” value ([2]; 6 mg/kg p.o.) was 42% and the “survival of skin allografts” value ([2]; 12 mg/kg p.o.) was 90%. The “histological evaluation of islet grafts” value [3] was “minimal intra-graft inflammation”, the “glycemic state of islet graft recipients” value ([3]; day -1 through day 28) was “normoglycemic” and the “maintenance of BALB/c islet cell grafts” value ([3]; day -1 through day 28) was 28 days. For the same molecule, the “IgG1 alloantibody isotype production” value (IgG1 alloantibody) was “completely inhibited” and the “IgG2a alloantibody isotype production” value (IgG2a alloantibody) was “completely inhibited”.
